Data on 33 substances can be found in patent US20250206789A1, “ZINC FINGER DEGRON SEQUENCES” (STICHTING HET NEDERLANDS KANKER INSTITUUT-ANTONI VAN …, priority 2022, published 2025).

The assay concerns Jurkat cells. Nature of the assay: SynFinger library screen: CD69 expression of CRASH-IT (Zap70-PD1-degron) transduced Jurkat cells with or without lenalidomide, enrichment index from NGS reads. In kind it is cell-based. Details: key to EI / EI index (enrichment index): enrichment index; low EI = SynFinger with desired properties. The conditions noted are these: for EI index (enrichment index): Table 6, dual substitutions in first hybrid zinc finger domain, Jurkat, 50 nM lenalidomide vs mock, CD69-HI/CD69-LO, low EI = desired. The source says: […] Jurkat cells were transduced with the SynFinger library (SynFinger containing CRASH-IT switches) at a 12.8% transduction efficiency and sorted for high EGFP expression to enrich transduced cells. For quality control of the SynFinger transduced Jurkat cells, SynFinger sequences were amplified and analyzed by NGS. 10 randomly selected SynFinger encoding DNA sequences or DNA sequences encoding the same SynFinger amino acid sequences but contain 2 nucleotide mismatches due to alternative codon usage were used to assess ability to distinguish true SynFinger sequences from noise in the NGS data. 10/10 SynFinger encoding full-nucleotide sequence match sequences were observed within NGS data whereas the 2 nucleotide mismatch containing sequences were not detected.
Jurkat cells expressing the SynFinger library were treated with 50 nM lenalidomide (a suboptimal dose that activates only ˜50% of cells expressing a CRASH-IT switch containing the parental double hybrid degron in Jurkat cells, as compared to a maximally effective 1000 nM lenalidomide dose) or were mock treated for 24 hours, and subsequently activated with anti-CD3/anti-CD28 antibodies in the presence or absence of 50 nM lenalidomide for 5 hours. Afterwards, cells were stained with IR dye (1:400) and anti-CD69-PE (1:200). Cells were sorted for live (IR dye negative), EGFP high end CD69 high (top 5%) or CD69 low (bottom 5%) expression using Aria Fusion cytometers.
Subsequently, cells were washed with PBS, and cell pellets were frozen at −20° C. until DNA extraction. Genomic DNA was isolated using the DNeasy Blood & Tissue Kit (Qiagen) according to the manufacturer's instructions, using 5×10^6 cells per column. DNA was eluted in 22 μl RNAse free water. Deep sequencing adapters and indexes were added to SynFinger encoding DNA sequences using PCR amplification. Briefly, 3 μg genomic DNA (20 μl), indexed forward and reverse primers (10 μM, 2.5 μl each) and 25 μl NEBNext® High-Fidelity 2×PCR Master Mix were added to the PCR reaction. An optimized PCR reaction (98° C. for 30 s, (98° C. for 10 s, 56° C. for 10 s, 72° C. for 5 s)×25 cycles, 72° C. for 3 min was performed using Eppendorf PCR cyclers.
Indexed PCR products were run on agarose gel, relative DNA concentrations were estimated by measuring band intensity, and 12 indexed PCR reaction products were mixed per MiSeq chip. To increase sequence diversity, samples were mixed with 25% PhiX DNA. In total, 2 MiSeq chips were used (100 bp, single read). To distinguish genuine SynFinger sequences from sequencing errors, results were filtered using a reference list of actual sequences used in SynFinger library design (100% codon match). Sequences with a very low number of reads (sum of all samples below 500 reads) were excluded from analysis.
To identify SynFingers that improve sensitivity of CRASH-IT switches towards lenalidomide while preserving or improving stringency of switch mediated control of T cell activation in the absence of lenalidomide, an enrichment index (EI) value was calculated for each sequence as described below, and SynFingers were ranked according to their EI, with a low EI indicating a SynFinger with desired properties.
CD69-HI and […] read counts from top 100 SynFingers were compared with read counts from the parental double hybrid degron using a two-sided Fisher's exact test to determine enrichment of CD69-HI cells in the presence of lenalidomide and enrichment of CD69-LO cells in the absence of lenalidomide.
To further improve the sensitivity of double hybrid degron towards IMiDs, we performed a high throughput screen using a library of ˜50,200 CRASH-IT variants that encode either single or double amino acid substitutions at the indicated positions of the first hybrid zinc finger sequence, thereby changing 18 amino acids of this zinc finger into any amino acid except cysteine (FIG. 3). […]

“57 (LQCEICGFTCRQKMNLVRHIKLH) [compound 57]”: the “EI index (enrichment index)” value was 0.02583. The same measure, in the same setting: the same measure for “68 (HQCEICGFTCRQKGRLLRHIKLH) [compound 68]”: 0.03141. As to “18 (LQCAICGFTSRQKGNLLRHIKLH) [compound 18]”, the “EI index (enrichment index)” value was 0.01133.

Regarding “5 (LQCEICGFTCRQVKNLLRHIKLH) [compound 5]”, the “EI index (enrichment index)” value was 0.004648. Same read-out and setting: the same measure for “3 (LQCEICGFTCRRKGNLMRHIKLH) [compound 3]”: 0.003725; for “91 (LQCWICGFTCRQKGNLWRHIKLH) [compound 91]”: 0.04125; for “20 (LQCKICGFTCRVKGNLLRHIKLH) [compound 20]”: 0.01216. Same read-out and setting: the figure for “7 (LQCEICGFTCRQKNNLLRHIKRH) [compound 7]” is 0.004969. “YQCEICGFTCRQKGNLLRHIKLH [SEQ ID NO: 108, first hybrid zinc finger domain with only one mutation, substitution L1Y]”: the “EI value, times higher as compared to SEQ ID. NO 36” value (single mutation vs dual substitution L1Y/E4V, higher EI = less sensitive to IMiD) is on record as 10-15 times. Moreover, where the note is “single mutation vs dual substitution, higher EI = less sensitive to IMiD”, the “EI value, times higher as compared to SEQ ID. NO 100” value is listed as “at least 5 times”. For “51 (LQCEICGFTCRQKKNLLRHISLH) [compound 51]”, the “EI index (enrichment index)” value stood at 0.02309. On the same count and under the same terms, the figure for “21 (LQCEICGFSCRQKGNLRRHIKLH) [compound 21]” is 0.01255; for “55 (LQCEICGFTCRQKFKLLRHIKLH) [compound 55]” it is 0.0247. Still for that read-out and setting: the figure for “42 (LQCEICGFTCRRKGNLLRHRKLH) [compound 42]” is 0.01965.

Consider “8 (LQCEICGFTCRQLGNLLWHIKLH) [compound 8]”, for which the “EI index (enrichment index)” value turned out to be 0.006187. Same read-out and setting: the same measure for “84 (LQCEICGFTCRQKGKYLRHIKLH) [compound 84]”: 0.03903; for “63 (LQCWICGFTCRRKGNLLRHIKLH) [compound 63]”: 0.02829. Same read-out and setting: the figure for “97 (LQCEICGFTCRKKVNLLRHIKLH) [compound 97]” is 0.04294. On the same count and under the same terms, the same measure for “27 (LQCEICGFTCVQKGNLLRHIALH) [compound 27]”: 0.01487.

In the case of “52 (FQCEICGFTCRQKRNLLRHIKLH) [compound 52]”, the “EI index (enrichment index)” value turned out to be 0.0231. As to “94 (MQCVICGFTCRQKGNLLRHIKLH) [compound 94]”, the “EI index (enrichment index)” value amounted to 0.04229.

Take “11 (LQCPICGFTCRQKSNLLRHIKLH) [compound 11]”: the “EI index (enrichment index)” value is on record as 0.008068. On to “61 (WQCEICGFTCRQYGNLLRHIKLH) [compound 61]”, for which the “EI index (enrichment index)” value was found to be 0.0276. Consider “98 (LQCEICGFKCRQKGNLLRHIKRH) [compound 98]”, for which the “EI index (enrichment index)” value is 0.04302. The same measure, in the same setting: the figure for “22 (LQCKICGFTSRQKGNLLRHIKLH) [compound 22]” is 0.01311. Same read-out and setting: the same measure for “28 (LQCEICGFTCRRKGNLLRHIKHH) [compound 28]”: 0.01589; for “82 (LQCMICGFTCRQKGNLMRHIKLH) [compound 82]”: 0.03754. On the same count and under the same terms, the figure for “85 (WQCMICGFTCRQKGNLLRHIKLH) [compound 85]” is 0.03924; for “88 (LQCEICGFRCRQKGNLLRHIKKH) [compound 88]” it is 0.03947; for “17 (LQCIICGFTCRQKGNLLKHIKLH) [compound 17]” it is 0.0108.

“70 (LQCWICGFTCRQKMNLLRHIKLH) [compound 70]”: the “EI index (enrichment index)” value was 0.03192. Still for that read-out and setting: the figure for “53 (LQCEICGFTCRQKGNLLRHYKTH) [compound 53]” is 0.02363; for “26 (FQCEICGFTCRQKVNLLRHIKLH) [compound 26]” it is 0.01478; for “13 (LQCEICGFTCRQKGNMLRHIRLH) [compound 13]” it is 0.008761.
